These results are taken from PubChem BioAssay AID720570 (Broad Institute, 2013).

Each structure is given as a SMILES string.

The assay has as its system TC71 Ewing sarcoma viability, CellTiter-Glo ATP, 72 h. The assay is described as follows: cytotoxicity in EWS/Fli1-dependent TC71 cells – cell-based, luminescence, cherry-picked samples, retest, confirmation (AID 720570).
For `OCC1OC(n2cnc3c(NCc4ccco4)ncnc32)C(O)C1O` (centres undefined), the AC35 is 7.82 µM.

As to `C[C@H](CO)N1C[C@H](C)[C@H](CN(C)Cc2ccc(C(=O)Nc3ccccc3N)cc2)Oc2ccc(NS(=O)(=O)c3cccs3)cc2C1=O`, the AC35 was 8.61 µM.

`CC1(C)N=C(N)N=C(N)N1c1ccc(OCCCOc2ccccc2)c(Cl)c1`: the AC35 was 4.91 µM.

On to `COc1cc2oc3cc(C#Cc4ccc(N)cc4)ccc3c(=O)c2cc1OC`, for which the AC35 was 6.86 µM.

For `c1ccc(Nc2nnc(-c3ccc4c(c3)OCO4)o2)cc1`, the AC35 is 12 µM.

On to `CN1C2CCC1/C(=C/c1ccccn1)C(=O)/C2=C\c1ccccn1`, for which the AC35 was 1.43 µM.

On to `Nc1ncn([C@@H]2O[C@H](CO)[C@@H](O)[C@H]2O)c(=O)n1`, for which the AC35 was 11.7 µM.

On to `Cc1ccc(C(C)C)c(OCc2ccc(C(=O)N/N=C/c3ccc(O)cc3O)cc2)c1`, for which the AC35 is 2.01 µM.

For the compound `C[C@@H]1CN([C@@H](C)CO)C(=O)c2cc(NS(=O)(=O)c3ccccc3)ccc2O[C@@H]1CN(C)Cc1ccc(C(=O)Nc2ccccc2N)cc1`, the AC35 is 10.2 µM.

As to `C/C(=N\NC(=O)c1n[nH]c2c1CCC2)c1cccs1`, the AC35 is 20.2 µM.

For `CCCCc1c(-c2ccccc2OC)ncn1Cc1ccc(C(C)(C)C)cc1`, the AC35 was 13.1 µM.

Take `COc1ccc(S(=O)(=O)Nc2cccc3c2O[C@H](CN(C)Cc2ccc(C(=O)Nc4ccccc4N)cc2)[C@H](C)CN([C@@H](C)CO)C3=O)cc1`: the AC35 is 5.62 µM.

Turning to `COc1ccc(-c2cc(CNc3nc(NC(C)C)nc4cc(-c5ccccc5)sc34)on2)cc1`, the AC35 is 12.1 µM.

Turning to `Oc1[nH]c2ccc(Br)cc2c1N=NC(=S)N1CCOCC1`, the AC35 was 2.87 µM.

Turning to `COC(=O)C[C@H]1CC[C@@H]2[C@H](COc3ccc(NC(=O)Nc4cccc(Cl)c4)cc3C(=O)N2C)O1`, the AC35 was 15 µM.

As for `C[C@H](CO)N1C[C@H](C)[C@@H](CN(C)Cc2ccc(C(F)(F)F)cc2)OCCCC[C@H](C)Oc2ccc(NS(=O)(=O)c3ccc(F)cc3)cc2C1=O`, the AC35 was 17.3 µM.

Take `CN=c1scc(-c2ccccc2F)n1/N=C/c1ccc(O)c(O)c1O`: the AC35 is 16.1 µM.

Consider `CO[C@H]1CN(C)C(=O)c2cc(NC(=O)NC(C)C)ccc2OC[C@H](C)N(Cc2ccc(-c3ccccn3)cc2)C[C@@H]1C`, for which the AC35 was 20.8 µM.

With `CCc1ccc(S(=O)(=O)c2ccc(-n3nc(C)cc3N)cc2)cc1`, the AC35 is 19.4 µM.

In the case of `CC12CCC(O)CC1CCC1C2CCC2(C)C(C3=CC(=O)OC3)CCC12O` (centres undefined), the AC35 is 1.17 µM.

For `O=C(Nc1cccc(S(=O)(=O)N2CCCC2)c1)c1ccc(Cl)nc1`, the AC35 was 14 µM.

On to `CCNC(=O)c1cc2c(c(-c3cccc(-c4cccc(OC)c4)c3)n1)[C@H](CCO)N([S@@](=O)C(C)(C)C)C2`, for which the AC35 is 7.43 µM.

As to `COc1cc2c(cc1OC)C(C)N(C(=O)c1cc(Cl)nc(Cl)c1)CC2` (centres undefined), the AC35 was 11.9 µM.

As for `O=C1NC(=O)N(c2ccccc2)C(=O)/C1=C\C=C\c1ccccc1`, the AC35 is 12.6 µM.

`Cc1cc(-c2nc3cc(F)ccc3s2)ccc1N`: the AC35 is 14.2 µM.

Turning to `Cc1ccc(C)c(S(=O)(=O)N2CCN(c3ncnc4sccc34)CC2)c1`, the AC35 was 6.72 µM.

In the case of `CC(C)N1C/C(=C/c2cccnc2)C(=O)/C(=C/c2cccnc2)C1`, the AC35 is 22.6 µM.

Turning to `Cc1noc(C)c1C(=O)Nc1sccc1C(N)=O`, the AC35 was 13.6 µM.

Consider `C=C(C(=O)c1ccccc1)C(C)C(=C)C(=O)c1ccccc1`, for which the AC35 was 11.1 µM.

For `C(=N\Nc1nc2ccccc2s1)/c1ccccn1`, the AC35 is 3.07 µM.

As to `O=C(O)c1ccc(N/N=C/c2c(F)cccc2Cl)cc1`, the AC35 is 3.26 µM.

For `O=C(NC[C@@H]1N[C@@H](CO)[C@H]1c1ccc(C2=CCCCC2)cc1)c1cccc(F)c1`, the AC35 was 12.3 µM.

Take `C[C@]12CC[C@H](O)C[C@H]1CC[C@@H]1[C@@H]2C[C@@H](O)[C@]2(C)[C@@H](C3=CC(=O)OC3)CC[C@]12O`: the AC35 is 3.35 µM.

As for `CCCCc1c(Cc2ccccc2)ncn1CCc1ccccc1OC`, the AC35 is 14.4 µM.

In the case of `CC(=NNc1ccc2ccccc2n1)c1ccccn1`, the AC35 is 1.57 µM.

As for `C[C@@H]1O[C@@H](O[C@H]2C[C@@H](O)[C@]3(CO)[C@@H]4C(CC[C@]3(O)C2)[C@@]2(O)CC[C@H](C3COC(=O)C3)[C@@]2(C)C[C@H]4O)[C@H](O)[C@H](O)[C@H]1O` (some centres undefined), the AC35 was 6.91 µM.

Regarding `N#CC(=C1C=CC(=NO)C(Cl)=C1)c1ccccc1`, the AC35 is 6.4 µM.

In the case of `C[C@]12CC[C@H](O)C[C@H]1CC[C@@H]1[C@@H]2CC[C@]2(C)[C@@H](C3=CC(=O)OC3)CC[C@]12O`, the AC35 was 2.11 µM.

With `CCOC(=O)[C@]12Cc3ccc(C)cc3[C@H]1N(C1CCCCC1)C(=O)c1ccccc12`, the AC35 was 12.1 µM.

Take `O=c1ccc2ccccc2c2ccccc12`: the AC35 is 10.5 µM.

Regarding `Cc1cccc(CN2C(=O)/C(=C\c3ccc(C(=O)NCCCN4CCN(C)CC4)cc3)Oc3ccccc32)c1`, the AC35 was 12.9 µM.

With `COc1cccc(O)c1CN1CCC(C(=O)Nc2ccc(-c3cccc(C)c3)cc2)CC1`, the AC35 is 20.7 µM.

Take `Cc1cccc(NC(=O)CN2CCN(C(=O)CNC(=O)c3ccc(-c4ccccc4)cc3)CC2)c1C`: the AC35 is 8.9 µM.

Regarding `O=C(C[C@@H]1C[C@H]2c3cc(NS(=O)(=O)c4ccc(F)cc4)ccc3O[C@H]2[C@H](CO)O1)NCc1ccc(-c2ccccc2)cc1`, the AC35 is 1.91 µM.

Regarding `O=C1c2ccccc2C(=O)N1CCCCNc1ccccc1`, the AC35 was 5.25 µM.

As to `C[C@@H]1CN([C@@H](C)CO)C(=O)c2cccc(NS(=O)(=O)c3ccc(F)cc3)c2O[C@@H]1CN(C)Cc1ccc(C(=O)Nc2ccccc2N)cc1`, the AC35 is 8.22 µM.

As for `CCc1ccc2oc(C(=O)N3CCN(c4ccccc4OC)CC3)cc(=O)c2c1`, the AC35 was 12.6 µM.

For the compound `O=c1[nH]c(=O)n(C2C[C@H](O)[C@@H](CO)O2)cc1C(F)(F)F` (some centres undefined), the AC35 was 2.59 µM.

Take `C[C@@H]1CN([C@@H](C)CO)C(=O)c2cccc(NC(=O)CCCCCC(=O)Nc3ccccc3N)c2O[C@@H]1CN(C)Cc1ccc(Oc2ccccc2)cc1`: the AC35 was 10.6 µM.

On to `N/C(=C\C(=O)c1cc(Cl)ccc1O)C(Cl)(Cl)Cl`, for which the AC35 was 9.12 µM.

On to `CCN1C/C(=C/c2ccc(OC)c(O)c2)C(=O)/C(=C/c2ccc(OC)c(O)c2)C1`, for which the AC35 was 22.9 µM.

For the compound `CC1=NN(c2ccc(C)cc2)C(=O)/C1=C\C=C\c1ccccc1`, the AC35 is 18.8 µM.

In the case of `C[C@@H]1CCCCO[C@H](CN(C)Cc2ccc(C(=O)Nc3ccccc3N)cc2)[C@@H](C)CN([C@H](C)CO)C(=O)c2cc(NS(=O)(=O)c3ccc(F)cc3)ccc2O1`, the AC35 is 12.9 µM.

As for `C[C@H](CO)N1C[C@H](C)[C@H](CN(C)Cc2ccc(C(=O)Nc3ccccc3N)cc2)Oc2ccc(NC(=O)C3CC3)cc2CC1=O`, the AC35 was 9.49 µM.

Turning to `NC(Cc1ccc(C(F)(F)F)cc1)c1csc(NC(=O)Nc2ccccc2Cc2ccccc2)n1` (centres undefined), the AC35 was 12.7 µM.

As for `CCOc1ccc(N=Nc2ccc(O)c3ncccc23)cc1`, the AC35 is 2.8 µM.

Regarding `Cc1ccc(S(=O)(=O)Nc2ccc3c(c2)C(=O)N([C@@H](C)CO)C[C@@H](C)[C@@H](CN(C)Cc2ccc(C(=O)Nc4ccccc4N)cc2)O3)cc1`, the AC35 is 11.5 µM.

As for `COC(=O)C[C@@H]1CC[C@@H]2[C@H](COc3ccc(NC(=O)c4cc(C)on4)cc3C(=O)N2C)O1`, the AC35 is 12 µM.

Turning to `COc1cccc(-c2cc(NC=O)c3ncc(-c4ccc(C(C)=O)cc4)n3c2)c1`, the AC35 is 1.78 µM.

For the compound `C[C@@H]1CN([C@@H](C)CO)S(=O)(=O)c2ccc(C#CC(C)(C)O)cc2O[C@H]1CN(C)Cc1ccc(-c2ccccc2)cc1`, the AC35 was 3.55 µM.

Turning to `CCCCCCCCCCCCCCCCn1cc[n+](C)c1`, the AC35 is 10.2 µM.

For the compound `Cc1cc(C)c2sc(NNC(=O)c3ccc(S(=O)(=O)N4CCc5ccccc5C4)cc3)nc2c1`, the AC35 is 2.4 µM.

Turning to `COc1ccc(S(=O)(=O)N2CC[C@@H]3[C@H](CO)Nc4ccc(-c5ccc(C#N)cc5)cc4[C@@H]32)cc1`, the AC35 was 4.88 µM.

Turning to `Cc1c(Cc2ccc3c(c2)OCO3)sc(NC(=O)C(C)(C)C)c1C#N`, the AC35 is 13.2 µM.

In the case of `Nc1nc(N)c2c(ccc3nccc32)[nH]1`, the AC35 was 3.24 µM.

Consider `C(=NNc1ccc2ccccc2n1)c1ccccn1`, for which the AC35 is 1.55 µM.

For the compound `O=C(N/N=C/c1cccs1)c1n[nH]c2c1CCCC2`, the AC35 was 17.2 µM.

As for `COc1cc(-c2cnc3c(NC=O)cc(-c4cccc(NC(C)=O)c4)cn23)cc(OC)c1OC`, the AC35 was 0.385 µM.

As to `COc1ccccc1-c1ccc(OCCCN2CCC(C(O)(c3ccccc3)c3ccccc3)CC2)cc1`, the AC35 was 13.7 µM.

`CN(C)c1ccc(-c2ccnc3c2CC(C)(C(=O)NCc2ccco2)O3)cc1` (centres undefined): the AC35 was 10.4 µM.

Regarding `CCCC[C@@H]1Cc2[nH][nH]c(=O)c2[C@H](c2ccc3ccccc3c2)O1`, the AC35 was 15.2 µM.

`COc1ccc(/C=C(/C(=O)c2cccs2)N2C=CC=CC2=C(C#N)C#N)cc1`: the AC35 was 24.6 µM.

For `COc1ccc(/C=C/C(=O)c2cc(F)ccc2OC(=O)c2ccccc2OC)cc1OC`, the AC35 is 1.59 µM.

Regarding `C[C@H]1CN([C@@H](C)CO)C(=O)Cc2cc(NC(=O)CCCCCC(=O)Nc3ccccc3N)ccc2O[C@H]1CN(C)Cc1ccc(C(F)(F)F)cc1`, the AC35 is 11.6 µM.

As for `COc1ccc(C(C)(O)c2nc(-c3cccc(F)c3)cs2)cc1` (centres undefined), the AC35 was 12.8 µM.

Consider `O=C(NCc1cccnc1)C1Cc2c(-c3ccc(Cl)cc3)ccnc2O1` (centres undefined), for which the AC35 was 13.2 µM.

Turning to `C[C@]12CC[C@H]3[C@@H](CC[C@]4(O)C[C@@H](O)CC[C@]34C=O)[C@@]1(O)CC[C@@H]2C1=CC(=O)OC1`, the AC35 was 2.24 µM.

`Oc1c(Cl)cc(Cl)c(Cl)c1Cc1c(O)c(Cl)cc(Cl)c1Cl`: the AC35 is 3.22 µM.

Regarding `CCC1=Nc2cc(C(=O)NCC3CCCO3)ccc2Sc2ccc(Br)cc21` (centres undefined), the AC35 was 6.83 µM.

For the compound `Cc1nn(Cc2ccccc2Cl)c2sc(C(=O)Nc3ccccc3N3CCOCC3)cc12`, the AC35 is 13.2 µM.

Take `Cc1cc(C)cc(C(=O)NC(=S)Nc2ccc(Cc3ccncc3)cc2)c1`: the AC35 was 7.66 µM.

In the case of `O=C(c1cccc(S(=O)(=O)NCc2ccccc2)c1)N1CCN(c2ccccc2)CC1`, the AC35 was 17.6 µM.

`COC1C(O)C(C)OC(OC2C(Oc3cccc4c(O)c5c(=O)oc6ccc(C)c7c(=O)oc(c34)c5c67)OC(C)C(O)C2O)C1O` (centres undefined): the AC35 was 5.5 µM.

Take `CCOc1ccc2nc(NC3=NC(c4ccc(OC)cc4)CC(=O)N3)nc(C)c2c1` (centres undefined): the AC35 is 20.9 µM.
